Results published in ChEMBL document CHEMBL1201862, “PubChem BioAssay data set” (2004).
Where “and” joins values, the source holds several entries; their conditions need not be identical. Identical values can stand only once.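 Five compound concentrations were applied to cells in 96-well plates for 48 hours; endpoints were derived by simple linear interpolation of the resulting dose-response curve. GI50 is the concentration that inhibits growth by half.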 Calls of active or inactive are those of the source. Rule as the data show it: active = GI50 up to about 1.1 µM and inactive = higher.

Columns and labels:
Test in all cases: NCI anticancer screen, dose series, 48 h
DU-145 = tested on: DU-145
M14 = tested on: M14
NCI/ADR-RES = tested on: NCI/ADR-RES
RPMI-8226 = tested on: RPMI-8226
HCT-116 = tested on: HCT-116
SK-MEL-28 = tested on: SK-MEL-28
COLO 205 = tested on: COLO 205
A549 = tested on: A549
U-251 = tested on: U-251
PC-3 = tested on: PC-3
HL-60 = tested on: HL-60
HCC 2998 = tested on: HCC 2998
MDA-MB-435 = tested on: MDA-MB-435
786-0 = tested on: 786-0
ACHN = tested on: ACHN
MDA-MB-231 = tested on: MDA-MB-231
SF-268 = tested on: SF-268
NCI-H226 = tested on: NCI-H226
NCI-H460 = tested on: NCI-H460
CCRF-CEM = tested on: CCRF-CEM

Compound	GI50 (DU-145)	GI50 (M14)	GI50 (NCI/ADR-RES)	GI50 (RPMI-8226)	GI50 (HCT-116)	GI50 (SK-MEL-28)	GI50 (COLO 205)	GI50 (A549)	GI50 (U-251)	GI50 (PC-3)	GI50 (HL-60)	GI50 (HCC 2998)	GI50 (MDA-MB-435)	GI50 (786-0)	GI50 (ACHN)	GI50 (MDA-MB-231)	GI50 (SF-268)	GI50 (NCI-H226)	GI50 (NCI-H460)	GI50 (CCRF-CEM)
CCCC/C=C1/CCC(CN(C)C)C1=O (stereo not drawn)	15.6 µM (inactive)	1.71 µM (inactive)	2.64 µM (inactive)	0.0968 µM (active)	1.84 µM (inactive)	1.92 µM (inactive)	1.42 µM (inactive)	6.58 µM (inactive)	1.97 µM (inactive)	14.1 µM (inactive)	0.885 µM (active)	1.56 µM (inactive)	11 µM (inactive)	1.55 µM (inactive)	2.05 µM (inactive)	2.82 µM (inactive)	2.47 µM (inactive)	11.1 µM (inactive)	–	–
Cc1ccc(S(=O)(=O)N2C3C=CC(C3)[C@@H]2C(Cl)(Cl)Cl)cc1 (stereo partly drawn)	10.5 µM (inactive)	14.4 µM (inactive)	9.51 µM (inactive)	3.09 µM (inactive)	10.8 µM (inactive)	18.2 µM (inactive)	20.6 µM (inactive)	18.7 µM (inactive)	15 µM (inactive)	5.06 µM (inactive)	1.66 µM (inactive)	7.31 µM (inactive)	27 µM (inactive)	10 µM (inactive)	14.3 µM (inactive)	12.5 µM (inactive)	13.2 µM (inactive)	15 µM (inactive)	6.75 µM (inactive)	17 µM (inactive)
O=C1CC(NCc2ccccc2)c2c(Cl)sc(Cl)c21 (stereo not drawn)	35.8 µM (inactive)	21.8 µM (inactive)	28.1 µM (inactive)	2.26 µM (inactive)	15.1 µM (inactive)	28.1 µM (inactive)	21.6 µM (inactive)	33.3 µM (inactive)	18.3 µM (inactive)	17.3 µM (inactive)	17.2 µM (inactive)	17.4 µM (inactive)	24.7 µM (inactive)	17.1 µM (inactive)	22.3 µM (inactive)	27.1 µM (inactive)	16.3 µM (inactive)	25.9 µM (inactive)	> 61.4 µM (inactive)	2.54 µM (inactive)
O[C@H]1[C@H](O)[C@@H](O)[C@@]2(O)C[C@@H](O)[C@@H]1N2	> 100 µM (inactive)	> 100 µM (inactive)	> 100 µM (inactive)	–	> 100 µM (inactive)	> 100 µM (inactive)	> 100 µM (inactive)	> 100 µM (inactive)	> 100 µM (inactive)	> 100 µM (inactive)	> 100 µM (inactive)	> 100 µM (inactive)	> 100 µM (inactive)	> 100 µM (inactive)	> 100 µM (inactive)	> 100 µM (inactive)	> 100 µM (inactive)	> 100 µM (inactive)	> 100 µM (inactive)	> 100 µM (inactive)
Nc1c(Br)cc(-c2cc(Br)c(N)c(Br)c2)cc1Br	> 100 µM (inactive)	> 100 µM (inactive)	> 100 µM (inactive)	> 100 µM (inactive)	> 100 µM (inactive)	> 100 µM (inactive)	> 100 µM (inactive)	> 100 µM (inactive)	–	> 100 µM (inactive)	> 100 µM (inactive)	> 100 µM (inactive)	> 100 µM (inactive)	> 100 µM (inactive)	> 100 µM (inactive)	> 100 µM (inactive)	> 100 µM (inactive)	> 100 µM (inactive)	> 100 µM (inactive)	> 100 µM (inactive)
CC1=CC(=O)/C(=C/N2C(=O)CNC2=S)C(=O)O1	> 100 µM (inactive)	> 100 µM (inactive)	> 100 µM (inactive)	–	> 100 µM (inactive)	> 100 µM (inactive)	> 100 µM (inactive)	> 100 µM (inactive)	> 100 µM (inactive)	> 100 µM (inactive)	> 100 µM (inactive)	> 100 µM (inactive)	> 100 µM (inactive)	> 100 µM (inactive)	> 100 µM (inactive)	> 100 µM (inactive)	–	> 100 µM (inactive)	> 100 µM (inactive)	–
Clc1cccc2[nH]ncc12	> 100 µM (inactive)	–	> 100 µM (inactive)	> 100 µM (inactive)	66.7 µM (inactive)	> 100 µM (inactive)	74.6 µM (inactive)	> 100 µM (inactive)	> 100 µM (inactive)	> 100 µM (inactive)	> 100 µM (inactive)	> 100 µM (inactive)	> 100 µM (inactive)	> 100 µM (inactive)	> 100 µM (inactive)	> 100 µM (inactive)	–	> 100 µM (inactive)	> 100 µM (inactive)	> 100 µM (inactive)
COc1cc2c(c(OC)c1OC)-c1ccc(SC)c(=O)cc1[C@@H](OC(C)=O)CC2	< 0.01 µM (active)	< 0.01 µM (active)	< 0.01 µM (active)	–	< 0.01 µM (active)	< 0.01 µM (active)	< 0.01 µM (active)	< 0.01 µM (active)	< 0.01 µM (active)	< 0.01 µM (active)	< 0.01 µM (active)	< 0.01 µM (active)	< 0.01 µM (active)	< 0.01 µM (active)	< 0.01 µM (active)	< 0.01 µM (active)	< 0.01 µM (active)	< 0.01 µM (active)	< 0.01 µM (active)	< 0.01 µM (active)
C/C(=C\COP(=O)(O)OP(=O)(O)O)CC/C=C(\C)CNc1c(F)c(F)c(F)c(F)c1F	> 67.6 µM (inactive)	> 100 µM (inactive)	> 100 µM (inactive)	–	> 25.5 µM (inactive)	> 100 µM (inactive)	> 100 µM (inactive)	> 48.6 µM (inactive)	> 100 µM (inactive)	67.3 µM (inactive)	> 100 µM (inactive)	> 100 µM (inactive)	> 100 µM (inactive)	> 100 µM (inactive)	> 100 µM (inactive)	5.43 µM (inactive)	> 100 µM (inactive)	20.3 µM (inactive)	> 100 µM (inactive)	0.126 µM (active)
CC(=O)OCC1OC(n2c(C)c(C(C)=O)c(-c3ccco3)c(C#N)c2=S)C(OC(C)=O)C(OC(C)=O)C1OC(C)=O (stereo not drawn)	> 100 µM (inactive)	> 100 µM (inactive)	> 100 µM (inactive)	–	> 100 µM (inactive)	> 100 µM (inactive)	> 100 µM (inactive)	> 100 µM (inactive)	> 100 µM (inactive)	> 100 µM (inactive)	> 100 µM (inactive)	> 100 µM (inactive)	> 100 µM (inactive)	> 100 µM (inactive)	> 100 µM (inactive)	> 100 µM (inactive)	> 100 µM (inactive)	> 100 µM (inactive)	> 100 µM (inactive)	> 100 µM (inactive) and 53.2 µM (inactive)
O=C1/C(=C/c2ccc(Cl)cc2)N=C(c2ccccc2)N1C1Nc2cc3c(cc2S1)NC(N1C(=O)/C(=C/c2ccc(Cl)cc2)N=C1c1ccccc1)S3 (stereo not drawn)	46.3 µM (inactive)	> 100 µM (inactive)	63.8 µM (inactive)	23.8 µM (inactive)	35.9 µM (inactive)	> 100 µM (inactive)	–	–	32.3 µM (inactive)	40.7 µM (inactive)	0.336 µM (active)	61.1 µM (inactive)	52.8 µM (inactive)	87.3 µM (inactive)	> 100 µM (inactive)	> 100 µM (inactive)	27 µM (inactive)	> 100 µM (inactive)	30.4 µM (inactive)	11.5 µM (inactive)
CCOC(=O)C(Cc1ccc(OC(=O)OC(C)(C)C)cc1)NC(=O)OC(C)(C)C (stereo not drawn)	30.5 µM (inactive)	26.5 µM (inactive)	49.9 µM (inactive)	–	78 µM (inactive)	> 100 µM (inactive)	39.7 µM (inactive)	> 100 µM (inactive)	37.2 µM (inactive)	34.5 µM (inactive)	28.2 µM (inactive)	30.3 µM (inactive)	38.2 µM (inactive)	34.8 µM (inactive)	74.1 µM (inactive)	41.6 µM (inactive)	65.2 µM (inactive)	> 100 µM (inactive)	> 100 µM (inactive)	21.9 µM (inactive)
C/C=C1/CN2[C@@H](C3=C[C@@H]4[C@@H]5N(C3=O)c3ccccc3[C@@]53CCN5C/C(=C/C)[C@@H]4C[C@H]53)C[C@@]34c5ccccc5N5C(=O)CC=C([C@H]1C[C@H]23)[C@H]54 [ISOSUNGUCINE]	9.91 µM (inactive)	1.18 µM (inactive)	8.81 µM (inactive)	–	2.94 µM (inactive)	1.42 µM (inactive)	1.81 µM (inactive)	7.66 µM (inactive)	2.23 µM (inactive)	2.7 µM (inactive)	1.03 µM (active)	2.43 µM (inactive)	5.01 µM (inactive)	2.16 µM (inactive)	5.81 µM (inactive)	2.43 µM (inactive)	6.19 µM (inactive)	7.83 µM (inactive)	6.62 µM (inactive)	1.1 µM (active)
CCS(=O)(=O)c1c2cc(OC)ccc2nc2ccc(OC)cc12	> 100 µM (inactive)	> 100 µM (inactive)	> 100 µM (inactive)	–	> 100 µM (inactive)	> 100 µM (inactive)	> 100 µM (inactive)	> 100 µM (inactive)	> 100 µM (inactive)	> 100 µM (inactive)	> 100 µM (inactive)	> 100 µM (inactive)	> 100 µM (inactive)	> 100 µM (inactive)	> 100 µM (inactive)	> 100 µM (inactive)	> 100 µM (inactive)	> 100 µM (inactive)	> 100 µM (inactive)	> 100 µM (inactive)
